Where “and” joins values, the source holds several entries; their conditions need not be identical. Equal values may be shown once.
Columns and labels:
[1] = In vitro stability in pH 1.2 solution (USP Gastric fluid without enzymes); conditions: 37° C.
Experimental: Sample collection: At 0, 0.17, 0.5, 1, 2, 4 and 6 h, 100 mL of aliquots were taken from the incubation mixture and placed into centrifuge tubes containing 100 μL of ice-cold acetonitrile and 1 μm internal standard where the reaction was terminated.

[2] = tested on: MCD diet NASH mice; experiment: Serum AST and ALT of compounds treated-NASH mice (MCD diet); type: in vivo, Male C57BL/6 mice; conditions: MCD diet mice, 100 mg/kg oral, PG/TPSG (1:1)
Experimental: (§1) Animals and experimental protocol: Male C57BL/6 mice, 4 weeks of age, were purchased from Laboratory Animal Center (Taiwan, China) were maintained under the procedures and guidelines provided by the Institutional Animal Care and Use Committee of the Health Research Institutes (Taiwan, China). They were maintained with free access to pellet food and water in stainless-steel cages at a temperature of 21±2° C. with a 12 h light/dark cycle.
(§2) Mice were randomly divided into five groups and treated as follows: (1) MCD diet+PG/TPSG (2) MCD diet+100 mg/kg all compounds. After 28 days, animals were sacrificed for the collection of blood for determination of plasma ALT and AST concentrations, and liver samples for H&E stain.
(§3) After 28 days, animals were sacrificed for the collection of blood for determination of plasma ALT and AST concentrations, and liver samples for H&E stain.

[3] = tested on: hepatic steatosis induced by MCD diet; experiment: Histological examination (H&E stain) of liver of MCD diet mice; type: in vivo, Male C57BL/6 mice
Experimental: as §1, §2, §3

[4] = score per animal, MCD diet mice, 100 mg/kg oral, PG/TPSG (1:1)

Cl.[2H]C([2H])([2H])Oc1cc(/C=C/c2ccc(OC(=O)OCCNC(=O)CN)cc2)cc(OC([2H])([2H])[2H])c1 [Compound 6a, (E)-2-(2-aminoacetamido)ethyl (4-(3,5-bis(methoxy-d3)styryl-d6)phenyl) carbonate hydrochloride]
compound remaining in pH = 1.2 solution (%) ([1]; Time 0 h): 100.0%
compound remaining in pH = 1.2 solution (%) ([1]; Time 0.167 h): 106.4%
compound remaining in pH = 1.2 solution (%) ([1]; Time 0.5 h): 101.2%
compound remaining in pH = 1.2 solution (%) ([1]; Time 1 h): 119.4%
compound remaining in pH = 1.2 solution (%) ([1]; Time 2 h): 101.5%
compound remaining in pH = 1.2 solution (%) ([1]; Time 4 h): 104.6%
Serum ALT (U/L) [2]: 402.63 U/L
Serum AST (U/L) [2]: 555.25 U/L
effect on MCD diet-induced steatohepatitis (H&E staining), in words ([3]; MCD diet mice, 100 mg/kg oral): prevented MCD diet-induced steatohepatitis
Avg ([3]; average of Scores of the group, 100 mg/kg oral, PG/TPSG (1:1)): 7.00
Steatosis ([3]; score per animal, MCD diet mice, 100 mg/kg oral once daily, 5 times a week, in PG/TPSG (1:1), hydrochloride, 100 mg/kg): 3 (2×) and 2 (2×)
Ballooning [3, 4]: 2
Fibrosis [3, 4]: 0
Inflammation ([3]; score per animal, MCD diet mice, 100 mg/kg oral, PG/TPSG (1:1), hydrochloride, 100 mg/kg): 3 (2×) and 2 (2×)
Sum ([3]; sum of Scores of the 4 animals of the group, 100 mg/kg oral, PG/TPSG (1:1)): 28
Scores ([3]; total score per animal, MCD diet mice, 100 mg/kg oral, PG/TPSG (1:1), hydrochloride, 100 mg/kg): 8 and 7 (2×) and 6

Reference: patent US12466784B2, “Analogs of pterostilbene amino acid bearing carbonates for treating a non-alcoholic fatty liver disease and nonalcoholic steatohepatitis” (APICAL MOLECULAR BIOTECH CO., LTD., priority 2020, dated 2025)
